Compound in the first test: CNc1nc(-c2ccc3c(N)n[nH]c3c2)cc(N2C[C@@H](C(=O)NC3CCCCC3)CC[C@H]2C)n1
MDAMB231: the “GR50, 72 h” value is greater than 10 µM.

Turning to MDAMB330, the “GR50, 72 h” value turned out to be 0.279 µM.

With MDAMB361, the “GR50, 72 h” value amounted to 0.0407 µM.

For MDAMB415, the “GR50, 72 h” value was 1.34 µM.

In the case of MDAMB436, the “GR50, 72 h” value was greater than 10 µM.

For MDAMB453, the “GR50, 72 h” value is 2.12 µM.

Regarding MDAMB468, the “GR50, 72 h” value is greater than 10 µM.

As for MGH312, the “GR50, 72 h” value amounted to 0.0356 µM.

Consider PDX1206, for which the “GR50, 72 h” value came out at 1.86 µM.

With PDX1258, the “GR50, 72 h” value is greater than 10 µM.

For PDX1328, the “GR50, 72 h” value is greater than 10 µM.

In the case of PDXHCI002, the “GR50, 72 h” value was greater than 10 µM.

In the case of SKBR3, the “GR50, 72 h” value turned out to be 2.11 µM.

For SUM44PE, the “GR50, 72 h” value is 4.21 µM.

For SUM52PE, the “GR50, 72 h” value stood at 8.3 µM.

As to SUM149, the “GR50, 72 h” value was greater than 10 µM.

Turning to SUM159, the “GR50, 72 h” value is greater than 10 µM.

With SUM185PE, the “GR50, 72 h” value is greater than 10 µM.

SUM190PT: the “GR50, 72 h” value came out at 2.22 µM.

As to SUM229PE, the “GR50, 72 h” value is greater than 10 µM.

With SUM1315, the “GR50, 72 h” value came out at 3.85 µM.

Consider T47D, for which the “GR50, 72 h” value was 0.48 µM.

With UACC812, the “GR50, 72 h” value came out at 0.884 µM.

As to UACC893, the “GR50, 72 h” value was found to be 4.83 µM.

ZR751: the “GR50, 72 h” value is 5.91 µM.

Compound in the next test: CC(C)NC[C@@H](C(=O)N1CCN(c2ncnc3c2[C@H](C)C[C@H]3O)CC1)c1ccc(Cl)cc1 [Ipatasertib/GDC0068]
Take 184A1: the “GR50, 72 h” value is greater than 10 µM.

As to BT20, the “GR50, 72 h” value came to 0.645 µM.

BT474: the “GR50, 72 h” value was 0.521 µM.

Regarding BT549, the “GR50, 72 h” value was greater than 10 µM.

As for CAL51, the “GR50, 72 h” value came to 2.98 µM.

Take CAL120: the “GR50, 72 h” value was greater than 10 µM.

With CAMA1, the “GR50, 72 h” value stood at 0.341 µM.

For EFM19, the “GR50, 72 h” value was 1.45 µM.

As to EVSAT, the “GR50, 72 h” value was determined as 0.256 µM.

In the case of HCC38, the “GR50, 72 h” value was greater than 10 µM.

On to HCC70, for which the “GR50, 72 h” value came out at 0.14 µM.

As to HCC202, the “GR50, 72 h” value turned out to be 3.36 µM.

As to HCC1143, the “GR50, 72 h” value is greater than 10 µM.

In the case of HCC1395, the “GR50, 72 h” value was 0.926 µM.

As to HCC1419, the “GR50, 72 h” value was greater than 10 µM.

On to HCC1428, for which the “GR50, 72 h” value was greater than 10 µM.

On to HCC1500, for which the “GR50, 72 h” value is greater than 10 µM.

Turning to HCC1569, the “GR50, 72 h” value was 0.394 µM.

HCC1806: the “GR50, 72 h” value was greater than 10 µM.

HCC1937: the “GR50, 72 h” value was greater than 10 µM.

Take HCC1954: the “GR50, 72 h” value was 1.43 µM.

Take HS578T: the “GR50, 72 h” value stood at 4.59 µM.

Turning to HTERT_HME1, the “GR50, 72 h” value was greater than 10 µM.

Consider MCF7, for which the “GR50, 72 h” value came out at 1.3 µM.

For MCF10A, the “GR50, 72 h” value is greater than 10 µM.

Turning to MCF12A, the “GR50, 72 h” value was greater than 10 µM.

MDAMB157: the “GR50, 72 h” value is greater than 10 µM.

In the case of MDAMB175VII, the “GR50, 72 h” value is 0.22 µM.

On to MDAMB231, for which the “GR50, 72 h” value was greater than 10 µM.

In the case of MDAMB330, the “GR50, 72 h” value was found to be 0.38 µM.

For MDAMB361, the “GR50, 72 h” value was determined as 0.314 µM.

With MDAMB415, the “GR50, 72 h” value came to 0.0507 µM.

With MDAMB436, the “GR50, 72 h” value was greater than 10 µM.

Regarding MDAMB453, the “GR50, 72 h” value is 0.542 µM.

Regarding MDAMB468, the “GR50, 72 h” value was determined as 2.36 µM.

As to MGH312, the “GR50, 72 h” value is 0.037 µM.

As to PDX1258, the “GR50, 72 h” value worked out at 4.37 µM.

Consider PDX1328, for which the “GR50, 72 h” value was greater than 10 µM.

PDXHCI002: the “GR50, 72 h” value is greater than 10 µM.

Consider SKBR3, for which the “GR50, 72 h” value was 3.32 µM.

For SUM44PE, the “GR50, 72 h” value is 0.27 µM.

Turning to SUM52PE, the “GR50, 72 h” value worked out at 6.8 µM.

Turning to SUM149, the “GR50, 72 h” value was 4.56 µM.

Take SUM159: the “GR50, 72 h” value was greater than 10 µM.

For SUM185PE, the “GR50, 72 h” value is 6.34 µM.

With SUM190PT, the “GR50, 72 h” value is greater than 10 µM.

In the case of SUM229PE, the “GR50, 72 h” value was greater than 10 µM.

As for SUM1315, the “GR50, 72 h” value was greater than 10 µM.

As to T47D, the “GR50, 72 h” value stood at 0.136 µM.

UACC812: the “GR50, 72 h” value worked out at 1.02 µM.

For UACC893, the “GR50, 72 h” value turned out to be 0.223 µM.

For ZR751, the “GR50, 72 h” value was greater than 10 µM.

Consider ZR7530, for which the “GR50, 72 h” value worked out at 2.4 µM.

Compound in the next test: CCC(=O)Nc1ccc(C(=O)Nc2ccc(Nc3ncc4c(n3)N(C)c3ccc(C)cc3C(=O)N4C)cc2)cc1 [FMF-03-145-1]
Turning to CAL51, the “GR50, 72 h” value amounted to 0.00666 µM.

CAL120: the “GR50, 72 h” value was 0.00643 µM.

In the case of CAL851, the “GR50, 72 h” value is 0.00449 µM.

As to CAMA1, the “GR50, 72 h” value worked out at 0.00649 µM.

On to EFM19, for which the “GR50, 72 h” value was found to be 0.00827 µM.

For HCC38, the “GR50, 72 h” value came out at 0.00507 µM.

Turning to HCC1143, the “GR50, 72 h” value is 0.00583 µM.

For the cell line HCC1395, the “GR50, 72 h” value was determined as 0.00474 µM.

Turning to HCC1419, the “GR50, 72 h” value was 0.00703 µM.

HCC1937: the “GR50, 72 h” value was 0.00546 µM.

Consider HTERT_HME1, for which the “GR50, 72 h” value is 0.00584 µM.

MCF10A (GM): the “GR50, 72 h” value worked out at 0.00563 µM.

MCF12A: the “GR50, 72 h” value was found to be 0.00914 µM.

As to MDAMB361, the “GR50, 72 h” value came out at 0.00904 µM.

Turning to MDAMB436, the “GR50, 72 h” value was 0.00578 µM.

In the case of MDAMB453, the “GR50, 72 h” value came to 0.00648 µM.

Regarding MDAMB468, the “GR50, 72 h” value is 0.00536 µM.

On to SKBR3, for which the “GR50, 72 h” value was found to be 0.00508 µM.

Turning to SUM149, the “GR50, 72 h” value came to 0.00558 µM.

As to SUM159, the “GR50, 72 h” value worked out at 0.00548 µM.

As for SUM1315, the “GR50, 72 h” value was 0.0047 µM.

Turning to UACC812, the “GR50, 72 h” value was found to be 0.00186 µM.

ZR751: the “GR50, 72 h” value is 0.00573 µM.

Compound in a further test: COc1cccc(OCCCN)c1-c1cc(Nc2cnc(C#N)cn2)n[nH]1
Take BT20: the “GR50, 72 h” value is 0.000944 µM.

For BT549, the “GR50, 72 h” value came out at 2.27e-05 µM.

Take CAL51: the “GR50, 72 h” value came to 0.000588 µM.

Consider CAL120, for which the “GR50, 72 h” value was 0.000952 µM.

In the case of CAL851, the “GR50, 72 h” value turned out to be 0.000351 µM.

Consider CAMA1, for which the “GR50, 72 h” value came out at 0.00063 µM.

Turning to HCC38, the “GR50, 72 h” value worked out at 0.000505 µM.

Take HCC202: the “GR50, 72 h” value came out at 0.00549 µM.

Consider HCC1143, for which the “GR50, 72 h” value was 0.000582 µM.

For HCC1395, the “GR50, 72 h” value is 0.000487 µM.

On to HCC1419, for which the “GR50, 72 h” value was 0.000648 µM.

Consider HCC1569, for which the “GR50, 72 h” value came out at 0.00228 µM.

As for HCC1937, the “GR50, 72 h” value is 0.000607 µM.

On to HTERT_HME1, for which the “GR50, 72 h” value amounted to 0.000593 µM.

Take MCF10A (GM): the “GR50, 72 h” value was determined as 0.0122 µM.

For MCF12A, the “GR50, 72 h” value is 0.000725 µM.

As for MDAMB175VII, the “GR50, 72 h” value worked out at 0.0266 µM.

For MDAMB231, the “GR50, 72 h” value stood at 0.000148 µM.

For MDAMB330, the “GR50, 72 h” value stood at 0.000237 µM.

Consider MDAMB361, for which the “GR50, 72 h” value stood at 0.000459 µM.

In the case of MDAMB436, the “GR50, 72 h” value worked out at 0.000612 µM.

As for MDAMB453, the “GR50, 72 h” value amounted to 0.0005 µM.

Consider PDX1206, for which the “GR50, 72 h” value turned out to be 0.00357 µM.

With PDX1258, the “GR50, 72 h” value was 0.000103 µM.

Turning to PDX1328, the “GR50, 72 h” value was 0.000974 µM.

On to SKBR3, for which the “GR50, 72 h” value amounted to 0.000441 µM.

On to SUM44PE, for which the “GR50, 72 h” value worked out at 0.000342 µM.

In the case of SUM52PE, the “GR50, 72 h” value is 0.00264 µM.

For the cell line SUM149, the “GR50, 72 h” value was determined as 0.000514 µM.

As to SUM159, the “GR50, 72 h” value is 0.000711 µM.

Take SUM190PT: the “GR50, 72 h” value stood at 0.00042 µM.

Take SUM229PE: the “GR50, 72 h” value came out at 0.00707 µM.

On to SUM1315, for which the “GR50, 72 h” value was determined as 0.000483 µM.

UACC893: the “GR50, 72 h” value amounted to 0.0579 µM.

ZR751: the “GR50, 72 h” value stood at 0.0012 µM.

For the origin of these results see the supplement of paper PMC9663587.
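Note: breast cancer and non-malignant breast epithelial cell lines, Deep Dye Drop or Dye Drop imaging, nine half-log doses, GR normalized to time-zero plates and DMSO-only controls.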
